In patent US8541588B2, “Sulfonamide derivatives” (Pfizer Limited, priority 2009, dated 2013):

Target: T1, Nav1.7 (or SCN9A) channel; HEK cells stably transfected with hSCN9A (Homo sapiens, UniProt Q15858)
T1 construct: expressed in transfected cells
Test: Nav1.7 block, PatchXpress 7000 automated whole-cell voltage clamp, estimated IC50 (EIC50)
Format: cell-based
Conditions: PatchXpress platform, estimated IC50

[1] = hSCN9A HEK cells held at V1/2 of inactivation
[2] = hSCN9A HEK cells, Examples 283-814
[3] = hSCN9A HEK cells, Examples 815-1040

T1 sequence (Q15858 whole entry): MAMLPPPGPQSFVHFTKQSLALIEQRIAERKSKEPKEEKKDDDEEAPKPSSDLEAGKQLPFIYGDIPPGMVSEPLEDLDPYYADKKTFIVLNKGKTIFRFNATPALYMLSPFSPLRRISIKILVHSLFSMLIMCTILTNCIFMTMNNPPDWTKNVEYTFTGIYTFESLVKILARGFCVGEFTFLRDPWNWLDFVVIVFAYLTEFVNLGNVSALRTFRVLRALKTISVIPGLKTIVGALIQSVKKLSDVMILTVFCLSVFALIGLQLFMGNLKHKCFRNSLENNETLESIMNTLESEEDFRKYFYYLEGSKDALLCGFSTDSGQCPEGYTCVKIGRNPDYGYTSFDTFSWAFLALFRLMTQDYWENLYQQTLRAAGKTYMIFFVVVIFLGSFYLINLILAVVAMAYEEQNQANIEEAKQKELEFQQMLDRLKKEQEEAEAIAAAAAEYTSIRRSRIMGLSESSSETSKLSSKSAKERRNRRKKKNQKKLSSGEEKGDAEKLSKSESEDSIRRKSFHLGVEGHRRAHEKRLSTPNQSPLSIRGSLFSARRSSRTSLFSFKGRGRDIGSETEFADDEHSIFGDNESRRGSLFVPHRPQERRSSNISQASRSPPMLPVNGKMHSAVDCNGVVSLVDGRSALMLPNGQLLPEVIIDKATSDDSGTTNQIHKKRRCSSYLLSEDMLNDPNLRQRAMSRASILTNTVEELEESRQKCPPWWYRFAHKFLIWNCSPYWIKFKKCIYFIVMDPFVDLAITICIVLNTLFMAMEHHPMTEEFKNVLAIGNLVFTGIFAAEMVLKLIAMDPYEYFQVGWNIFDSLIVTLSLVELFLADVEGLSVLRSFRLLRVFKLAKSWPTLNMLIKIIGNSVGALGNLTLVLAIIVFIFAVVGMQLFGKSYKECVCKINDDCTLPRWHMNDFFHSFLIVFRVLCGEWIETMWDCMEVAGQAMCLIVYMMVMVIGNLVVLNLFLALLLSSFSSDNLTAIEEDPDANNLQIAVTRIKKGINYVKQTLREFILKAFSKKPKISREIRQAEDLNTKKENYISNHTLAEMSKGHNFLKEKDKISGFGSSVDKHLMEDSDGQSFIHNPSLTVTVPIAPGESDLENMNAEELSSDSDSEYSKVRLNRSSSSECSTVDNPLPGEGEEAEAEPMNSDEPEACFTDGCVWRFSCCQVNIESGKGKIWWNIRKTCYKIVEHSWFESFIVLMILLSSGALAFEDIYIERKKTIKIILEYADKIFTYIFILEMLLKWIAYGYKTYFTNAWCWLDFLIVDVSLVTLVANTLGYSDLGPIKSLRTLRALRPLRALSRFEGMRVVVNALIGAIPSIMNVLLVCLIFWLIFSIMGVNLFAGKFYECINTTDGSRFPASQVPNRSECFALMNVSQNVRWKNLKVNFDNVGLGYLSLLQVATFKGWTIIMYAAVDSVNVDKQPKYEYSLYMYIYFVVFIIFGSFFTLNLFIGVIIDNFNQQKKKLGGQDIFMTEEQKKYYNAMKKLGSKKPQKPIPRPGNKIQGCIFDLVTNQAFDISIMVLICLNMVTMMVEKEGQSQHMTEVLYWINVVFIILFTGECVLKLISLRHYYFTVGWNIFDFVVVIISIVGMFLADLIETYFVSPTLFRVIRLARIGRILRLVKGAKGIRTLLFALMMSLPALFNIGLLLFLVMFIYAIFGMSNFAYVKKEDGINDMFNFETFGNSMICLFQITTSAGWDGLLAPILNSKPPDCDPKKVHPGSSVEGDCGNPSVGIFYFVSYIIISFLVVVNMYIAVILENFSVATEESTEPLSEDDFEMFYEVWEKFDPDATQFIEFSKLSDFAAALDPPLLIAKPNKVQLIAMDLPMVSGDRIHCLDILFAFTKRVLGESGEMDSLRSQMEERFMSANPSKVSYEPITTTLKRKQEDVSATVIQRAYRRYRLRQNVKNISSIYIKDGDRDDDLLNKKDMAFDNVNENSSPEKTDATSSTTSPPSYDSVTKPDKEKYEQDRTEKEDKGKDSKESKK

SMILES	IC50 [1]	IC50 [2]	other results
N#Cc1cc(S(=O)(=O)Nc2ncc(Cl)s2)ccc1Oc1cc(C(F)(F)F)nn1Cc1ccccc1 [Example 142, 4-{[1-benzyl-3-(trifluoromethyl)-1H-pyrazol-5-yl]oxy}-N-(5-chloro-1,3-thiazol-2-yl)-3-cyanobenzenesulfonamide]	2620 nM	–	–
CCc1cc(-n2ccc(C(F)(F)F)n2)ccc1Oc1ccc(S(=O)(=O)Nc2nccs2)cc1C#N [Example 490, 3-cyano-4-{2-ethyl-4-[3-(trifluoromethyl)-1H-pyrazol-1-yl]phenoxy}-N-1,3-thiazol-2-ylbenzenesulfonamide]	–	660 nM	–
N#Cc1cc(S(=O)(=O)Nc2cscn2)ccc1Oc1ccc(Cl)cc1-c1ccnc(N)c1 [Example 392, 4-[2-(2-aminopyridin-4-yl)-4-chlorophenoxy]-3-cyano-N-1,3-thiazol-4-ylbenzenesulfonamide]	–	140 nM	–
N#Cc1cc(S(=O)(=O)Nc2ncc(Cl)s2)ccc1Oc1ccc(OC(F)(F)F)cc1-c1cn[nH]c1 [Example 591, N-(5-Chloro-1,3-thiazol-2-yl)-3-cyano-4-[2-(1H-pyrazol-4-yl)-4-(trifluoromethoxy)phenoxy]benzenesulfonamide]	–	73 nM	–
Nc1cc(-c2cc(Cl)ccc2Oc2cc(F)c(S(=O)(=O)Nc3cccnn3)cc2Cl)ccn1 [Example 1031, 4-[2-(2-aminopyridin-4-yl)-4-chlorophenoxy]-5-chloro-2-fluoro-N-pyridazin-3-ylbenzenesulfonamide]	–	–	IC50 [3]: 29 nM
Cn1nccc1-c1cc(F)ccc1Oc1cc(F)c(S(=O)(=O)Nc2ccncn2)cc1Cl [Example 295, 5-chloro-2-fluoro-4-[4-fluoro-2-(1-methyl-1H-pyrazol-5-yl)phenoxy]-N-pyrimidin-4-ylbenzenesulfonamide]	–	130 nM	–
Cn1nc(C(F)(F)F)cc1-c1ccc(Oc2cc(F)c(S(=O)(=O)Nc3nccs3)cc2Cl)c(C#N)c1 [Example 296, 5-chloro-4-{2-cyano-4-[1-methyl-3-(trifluoromethyl)-1H-pyrazol-5-yl]phenoxy}-2-fluoro-N-1,3-thiazol-2-ylbenzenesulfonamide]	–	25 nM	–
Cc1cc(Oc2ccccc2-c2ccccc2)ccc1S(=O)(=O)Nc1ncns1 [Example 261, 4-(biphenyl-2-yloxy)-2-methyl-N-1,2,4-thiadiazol-5-ylbenzenesulfonamide]	470 nM	–	–
O=S(=O)(Nc1ccncn1)c1ccc(Oc2ccc(Cl)cc2C2CCNCC2)c(Cl)c1 [Example 744, 3-chloro-4-(4-chloro-2-piperidin-4-ylphenoxy)-N-pyrimidin-4-ylbenzenesulfonamide]	–	170 nM	–
N#Cc1cc(S(=O)(=O)Nc2nccs2)ccc1Oc1ccc(F)cc1-c1ccc(CO)cc1 [Example 162, 3-cyano-4-{[5-fluoro-4′-(hydroxymethyl)biphenyl-2-yl]oxy}-N-1,3-thiazol-2-ylbenzenesulfonamide]	420 nM	–	–
O=S(=O)(Nc1nccs1)c1ccc(Oc2ccccc2-c2ccccn2)c(F)c1 [Example 131, 3-fluoro-4-(2-pyridin-2-ylphenoxy)-N-1,3-thiazol-2-ylbenzenesulfonamide]	12100 nM	–	–
O=S(=O)(Nc1nncs1)c1cc(Cl)c(Oc2ccc(Cl)cc2-c2ccnnc2)cc1F [Example 843, 5-chloro-4-(4-chloro-2-pyridazin-4-ylphenoxy)-2-fluoro-N-1,3,4-thiadiazol-2-ylbenzenesulfonamide]	–	–	IC50 [3]: 34 nM
NC(=O)c1cc(S(=O)(=O)Nc2nccs2)ccc1Oc1ccccc1-c1ccccc1 [Example 250, 2-(biphenyl-2-yloxy)-5-(N-thiazol-2-ylsulfamoyl)benzamide]	1850 nM	–	–
O=S(=O)(Nc1nncs1)c1cc(F)c(Oc2ccc(Cl)cc2-c2ccn[nH]2)cc1F [Example 302, 4-[4-chloro-2-(1H-pyrazol-5-yl)phenoxy]-2,5-difluoro-N-1,3,4-thiadiazol-2-ylbenzenesulfonamide]	–	160 nM	–
CC(C)N1CC(n2nccc2-c2cc(Cl)ccc2Oc2ccc(S(=O)(=O)Nc3cscn3)cc2C#N)C1 [Example 861, 4-{4-chloro-2-[1-(1-isopropylazetidin-3-yl)-1H-pyrazol-5-yl]phenoxy}-3-cyano-N-1,3-thiazol-4-ylbenzenesulfonamide]	–	–	IC50 [3]: 14 nM
Nc1cc(-c2cc(F)ccc2Oc2cc(F)c(S(=O)(=O)Nc3ccncn3)cc2Cl)ccn1 [Example 972, 4-[2-(2-aminopyridin-4-yl)-4-fluorophenoxy]-5-chloro-2-fluoro-N-pyrimidin-4-ylbenzenesulfonamide]	–	–	IC50 [3]: 25 nM
Cc1[nH]ncc1-c1cc(Cl)ccc1Oc1ccc(S(=O)(=O)Nc2nccs2)cc1C#N [Example 546, 4-[4-chloro-2-(5-methyl-1H-pyrazol-4-yl)phenoxy]-3-cyano-N-1,3-thiazol-2-ylbenzenesulfonamide]	–	20 nM	–
O=S(=O)(Nc1cscn1)c1ccc(Oc2ccc(Cl)cc2-c2cn[nH]c2)cc1F [Example 680, 4-[4-chloro-2-(1H-pyrazol-4-yl)phenoxy]-2-fluoro-N-1,3-thiazol-4-ylbenzenesulfonamide]	–	1000 nM	–
N#Cc1cc(S(=O)(=O)Nc2ncns2)ccc1Oc1ccc(I)cc1-c1cccc(CN2CCC2)c1 [Example 815, 4-{[3′-(azetidin-1-ylmethyl)-5-iodobiphenyl-2-yl]oxy}-3-cyano-N-1,2,4-thiadiazol-5-ylbenzenesulfonamide]	–	–	IC50 [3]: 0.6 nM
O=S(=O)(Nc1ncns1)c1ccc(Oc2ccc(Cl)cc2-c2cn[nH]c2)c(Cl)c1 [Example 724, 3-chloro-4-[4-chloro-2-(1H-pyrazol-4-yl)phenoxy]-N-1,2,4-thiadiazol-5-ylbenzenesulfonamide]	–	1.7 nM	–
CN1CC(n2nccc2-c2cc(OC(F)(F)F)ccc2Oc2cc(F)c(S(=O)(=O)Nc3nncs3)cc2Cl)C1 [Example 1017, 5-chloro-2-fluoro-4-{2-[1-(1-methylazetidin-3-yl)-1H-pyrazol-5-yl]-4-(trifluoromethoxy)phenoxy}-N-1,3,4-thiadiazol-2-ylbenzenesulfonamide]	–	–	IC50 [3]: 2.1 nM
O=S(=O)(Nc1nccs1)c1ccc(Oc2ccccc2-c2ccccc2)nc1 [Example 278, 6-(biphenyl-2-yloxy)-pyridine-3-sulfonic acid thiazol-2-ylamide]	2660 nM	–	–
N#Cc1cc(S(=O)(=O)Nc2cscn2)ccc1Oc1ccc(Cl)cc1-c1cccc(N)n1 [Example 766, 4-[2-(6-aminopyridin-2-yl)-4-chlorophenoxy]-3-cyano-N-1,3-thiazol-4-ylbenzenesulfonamide]	–	500 nM	–
COc1ccccc1-c1ccccc1Oc1ccc(S(=O)(=O)Nc2nccs2)c(F)c1 [Example 208, 2-fluoro-4-(2′-methoxybiphenyl-2-yloxy)-N-(thiazol-2-yl)benzenesulfonamide]	130 nM	–	–

Now from value to molecule, other results behind:

IC50 [1]	IC50 [2]	SMILES	other results
19200 nM	–	N#Cc1cc(S(=O)(=O)Nc2ncc[nH]2)ccc1Oc1ccccc1-c1ccccc1 [Example 117, 4-(biphenyl-2-yloxy)-3-cyano-N-1H-imidazol-2-ylbenzenesulfonamide]	–
>10000 nM	–	N#Cc1cc(S(=O)(=O)Nc2ncns2)ccc1Oc1nnccc1-c1ccccc1 [Example 21, 3-cyano-4-[(4-phenylpyridazin-3-yl)oxy]-N-1,2,4-thiadiazol-5-ylbenzenesulfonamide]	–
–	7300 nM	CN1CCC(c2cccc(Oc3ccc(S(=O)(=O)Nc4ccc(F)cn4)cc3C#N)c2)CC1 [Example 573, 3-cyano-N-(5-fluoropyridin-2-yl)-4-[3-(1-methylpiperidin-4-yl)phenoxy]benzenesulfonamide]	–
210 nM	–	N#Cc1cc(S(=O)(=O)Nc2ncns2)ccc1Oc1ccc(F)cc1-c1ccc(F)cc1F [Example 46, 3-cyano-N-1,2,4-thiadiazol-5-yl-4-[(2′,4′,5-trifluorobiphenyl-2-yl)oxy]benzenesulfonamide]	–
50 nM	–	Cn1nccc1-c1cc(F)ccc1Oc1ccc(S(=O)(=O)Nc2nccs2)cc1C#N [Example 169, 3-cyano-4-(4-fluoro-2-(1-methyl-1H-pyrazol-5-yl)phenoxy)-N-(thiazol-2-yl)benzenesulfonamide]	–
1600 nM	–	N#Cc1cc(S(=O)(=O)Nc2ncns2)ccc1Oc1cc(C2CC2)nn1-c1cc(F)ccc1F [Example 87, 3-cyano-4-{[3-cyclopropyl-1-(2,5-difluorophenyl)-1H-pyrazol-5-yl]oxy}-N-1,2,4-thiadiazol-5-ylbenzenesulfonamide]	–
900 nM	–	COc1ccc(-c2ccccc2Oc2ccc(S(=O)(=O)Nc3ncns3)cc2C#N)cc1F [Example 48, 3-cyano-4-[(3′-fluoro-4′-methoxybiphenyl-2-yl)oxy]-N-1,2,4-thiadiazol-5-ylbenzenesulfonamide]	–
–	93 nM	Cn1nc(C(F)(F)F)cc1-c1ccc(Oc2ccc(S(=O)(=O)Nc3ncns3)cc2C#N)c(C#N)c1 [Example 293, 3-cyano-4-{2-cyano-4-[1-methyl-3-(trifluoromethyl)-1H-pyrazol-5-yl]phenoxy}-N-1,2,4-thiadiazol-5-ylbenzenesulfonamide]	–
–	56 nM	Cn1nccc1-c1cc(C(F)(F)F)ccc1Oc1ccc(S(=O)(=O)Nc2ncns2)cc1C#N [Example 437, 3-cyano-4-[2-(1-methyl-1H-pyrazol-5-yl)-4-(trifluoromethyl)phenoxy]-N-1,2,4-thiadiazol-5-ylbenzenesulfonamide]	–
–	240 nM	Cn1nccc1-c1ccccc1Oc1ccc(S(=O)(=O)Nc2cscn2)cc1I [Example 629, 3-iodo-4-[2-(1-methyl-1H-pyrazol-5-yl)phenoxy]-N-1,3-thiazol-4-ylbenzenesulfonamide]	–
36100 nM	–	CN1C(=O)CCC1c1ccccc1Oc1ccc(S(=O)(=O)Nc2ncns2)cc1C#N (stereo not drawn) [Example 69, 3-cyano-4-[2-(1-methyl-5-oxopyrrolidin-2-yl)phenoxy]-N-1,2,4-thiadiazol-5-ylbenzenesulfonamide]	–
–	88 nM	CC(C)(C)n1nccc1-c1cc(Cl)ccc1Oc1ccc(S(=O)(=O)Nc2ncns2)cc1C#N [Example 775, 4-[2-(1-tert-butyl-1H-pyrazol-5-yl)-4-chlorophenoxy]-3-cyano-N-1,2,4-thiadiazol-5-ylbenzenesulfonamide]	–
